In paper PMC6917776, “Discovery of a chemical probe for PRDM9” (Nature Communications, 2019):
Read-outs that look alike come from different tables or passages of the source.

Experiment: CelltiterGlo viability cell assay
Assay type: cell-based
Conditions: human; for viability at 3 day, 9.5 µM / viability at 3 day, 30 µM / viability at 6 day, 0.01 µM / viability at 6 day, 0.03 µM / viability at 6 day, 0.1 µM: SKMM2 cells (multiple myeloma line); for viability at 3 day, 0.01 µM / viability at 3 day, 0.03 µM: SKMM2 cells
Procedure, shortened: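 CelltiterGlo luminescence, day 3 and day 6 readouts; compound 0.01–30 μM; data normalized to DMSO; n=3 biological replicates ± SEM.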

[1] = RPMI-8226 multiple myeloma cells, 8226, 3 day, read-out: viability Replicate 1
[2] = RPMI-8226 multiple myeloma cells, 8226, 3 day, read-out: viability Replicate 2
[3] = RPMI-8226 multiple myeloma cells, 8226, 3 day, read-out: viability Replicate 3
[4] = RPMI-8226 multiple myeloma cells, 8226, 3 day, read-out: viability Average
[5] = RPMI-8226 multiple myeloma cells, 8226, 6 day, read-out: viability Average
[6] = RPMI-8226 multiple myeloma cells, 8226, 6 day, read-out: viability Replicate 1
[7] = RPMI-8226 multiple myeloma cells, 8226, 6 day, read-out: viability Replicate 2
[8] = RPMI-8226 multiple myeloma cells, 8226, 6 day, read-out: viability Replicate 3
[9] = SKMM2, 3 day, read-out: viability Average
[10] = SKMM2, 3 day, read-out: viability Replicate 1
[11] = SKMM2, 3 day, read-out: viability Replicate 2
[12] = SKMM2, 3 day, read-out: viability Replicate 3
[13] = SKMM2, 6 day, read-out: viability Average
[14] = SKMM2, 6 day, read-out: viability Replicate 1
[15] = SKMM2, 6 day, read-out: viability Replicate 2
[16] = SKMM2, 6 day, read-out: viability Replicate 3
[17] = SKMM2 multiple myeloma cells, SKMM2, 3 day, read-out: viability Average
[18] = SKMM2 multiple myeloma cells, SKMM2, 3 day, read-out: viability Replicate 1
[19] = SKMM2 multiple myeloma cells, SKMM2, 3 day, read-out: viability Replicate 2
[20] = SKMM2 multiple myeloma cells, SKMM2, 3 day, read-out: viability Replicate 3
[21] = SKMM2 multiple myeloma cells, SKMM2, 6 day, read-out: viability Average
[22] = SKMM2 multiple myeloma cells, SKMM2, 6 day, read-out: viability Replicate 1
[23] = SKMM2 multiple myeloma cells, SKMM2, 6 day, read-out: viability Replicate 2
[24] = SKMM2 multiple myeloma cells, SKMM2, 6 day, read-out: viability Replicate 3

## COc1cc(OC)cc(-c2noc(N3CCN(C)C4(CCN(c5ccnc(C)c5)CC4)C3)n2)c1 [MRK-740]
[1]
  viability at 3 day, 0.3 µM: 101%
  viability at 3 day, 1 µM: 104%
  viability at 3 day, 3 µM: 106%
[2]
  viability at 3 day, 0.3 µM: 101%
  viability at 3 day, 1 µM: 102%
  viability at 3 day, 3 µM: 105%
[3]
  viability at 3 day, 0.3 µM: 104%
  viability at 3 day, 1 µM: 105%
  viability at 3 day, 3 µM: 107%
[4]
  viability at 3 day, 1 µM: 104%
  viability at 3 day, 3 µM: 106%
[5]
  viability at 6 day, 0.3 µM: 98.9%
  viability at 6 day, 1 µM: 97.3%
  viability at 6 day, 3 µM: 92.6%
  viability at 6 day, 9.5 µM: 82.7%
  viability at 6 day, 30 µM: 70.7%
[6]
  viability at 6 day, 0.3 µM: 97.6%
  viability at 6 day, 1 µM: 95%
  viability at 6 day, 3 µM: 89.2%
  viability at 6 day, 9.5 µM: 77%
  viability at 6 day, 30 µM: 82%
[7]
  viability at 6 day, 0.3 µM: 98.6%
  viability at 6 day, 1 µM: 99.7%
  viability at 6 day, 3 µM: 96.8%
  viability at 6 day, 9.5 µM: 85.6%
  viability at 6 day, 30 µM: 56.4%
[8]
  viability at 6 day, 0.3 µM: 101%
  viability at 6 day, 1 µM: 97.2%
  viability at 6 day, 3 µM: 91.7%
  viability at 6 day, 9.5 µM: 85.5%
  viability at 6 day, 30 µM: 73.5%
[9]
  viability at 3 day, 9.5 µM: 93.2%
  viability at 3 day, 30 µM: 67%
  viability at 3 day, 0.01 µM: 101%
  viability at 3 day, 0.03 µM: 101%
[10]
  viability at 3 day, 9.5 µM: 95.7%
  viability at 3 day, 30 µM: 70.4%
  viability at 3 day, 0.01 µM: 101%
  viability at 3 day, 0.03 µM: 99.8%
[11]
  viability at 3 day, 9.5 µM: 89.2%
  viability at 3 day, 30 µM: 59%
  viability at 3 day, 0.01 µM: 99.6%
  viability at 3 day, 0.03 µM: 99.2%
[12]
  viability at 3 day, 9.5 µM: 94.7%
  viability at 3 day, 30 µM: 71.7%
  viability at 3 day, 0.01 µM: 102%
  viability at 3 day, 0.03 µM: 103%
[13]
  viability at 6 day, 0.01 µM: 99.7%
  viability at 6 day, 0.03 µM: 98.1%
  viability at 6 day, 0.1 µM: 96.7%
[14]
  viability at 6 day, 0.01 µM: 96.8%
  viability at 6 day, 0.03 µM: 90.3%
  viability at 6 day, 0.1 µM: 86.5%
[15]
  viability at 6 day, 0.01 µM: 103%
  viability at 6 day, 0.03 µM: 105%
  viability at 6 day, 0.1 µM: 107%
[16]
  viability at 6 day, 0.01 µM: 99.2%
  viability at 6 day, 0.03 µM: 98.8%
  viability at 6 day, 0.1 µM: 96.8%
[17]
  viability at 3 day, 0.1 µM: 103%
  viability at 3 day, 0.3 µM: 101%
  viability at 3 day, 1 µM: 101%
  viability at 3 day, 3 µM: 99.8%
[18]
  viability at 3 day, 0.1 µM: 102%
  viability at 3 day, 0.3 µM: 101%
  viability at 3 day, 1 µM: 99.9%
  viability at 3 day, 3 µM: 97.6%
[19]
  viability at 3 day, 0.1 µM: 100%
  viability at 3 day, 0.3 µM: 98.7%
  viability at 3 day, 1 µM: 99.6%
  viability at 3 day, 3 µM: 98.3%
[20]
  viability at 3 day, 0.1 µM: 105%
  viability at 3 day, 0.3 µM: 103%
  viability at 3 day, 1 µM: 104%
  viability at 3 day, 3 µM: 104%
[21]
  viability at 6 day, 0.3 µM: 98.1%
  viability at 6 day, 1 µM: 96.5%
  viability at 6 day, 3 µM: 96.8%
  viability at 6 day, 9.5 µM: 94.5%
  viability at 6 day, 30 µM: 71.5%
[22]
  viability at 6 day, 0.3 µM: 88.2%
  viability at 6 day, 1 µM: 88%
  viability at 6 day, 3 µM: 85.2%
  viability at 6 day, 9.5 µM: 83.8%
  viability at 6 day, 30 µM: 71.4%
[23]
  viability at 6 day, 0.3 µM: 106%
  viability at 6 day, 1 µM: 105%
  viability at 6 day, 3 µM: 105%
  viability at 6 day, 9.5 µM: 102%
  viability at 6 day, 30 µM: 66%
[24]
  viability at 6 day, 0.3 µM: 100%
  viability at 6 day, 1 µM: 96.3%
  viability at 6 day, 3 µM: 100%
  viability at 6 day, 9.5 µM: 97.7%
  viability at 6 day, 30 µM: 77.2%
